Test results as given in patent US11034725B2, “Compositions and methods for treating cardiovascular disease” (Genentech, Inc., priority 2016, dated 2021).
Where two headings read alike, the source gives them in different places. Bridge positions count the residues as written; N and C are the ends. Square brackets hold non-standard residues; d marks the D form. Peptide text beside a SMILES is read from it. * marks the point of attachment. 5FAM = O=C1OC2(c3ccc(O)cc3Oc3cc(O)ccc32)c2ccc(C(=O)*)cc21; Pentanoyl = CCCCC(=O)*; Ahx = NCCCCCC(=O)O

Key:
[1] = molecular target: T1, PCSK9Δhelix (Homo sapiens, UniProt Q8NBP7); assay: Surface plasmon resonance biosensor-based affinity analysis (Example 4); type: binding; conditions: Table 7, Target PCSK9Δhelix, SPR at 20° C.; read-out: Kd
T1 construct: Human PCSK9 construct M1-Q692 with an engineered TEV site (residue deletion Y166, R167); made in house; host or cells: CHO
T1 sequence (Q8NBP7 with tags, fused parts or gaps limits assumed): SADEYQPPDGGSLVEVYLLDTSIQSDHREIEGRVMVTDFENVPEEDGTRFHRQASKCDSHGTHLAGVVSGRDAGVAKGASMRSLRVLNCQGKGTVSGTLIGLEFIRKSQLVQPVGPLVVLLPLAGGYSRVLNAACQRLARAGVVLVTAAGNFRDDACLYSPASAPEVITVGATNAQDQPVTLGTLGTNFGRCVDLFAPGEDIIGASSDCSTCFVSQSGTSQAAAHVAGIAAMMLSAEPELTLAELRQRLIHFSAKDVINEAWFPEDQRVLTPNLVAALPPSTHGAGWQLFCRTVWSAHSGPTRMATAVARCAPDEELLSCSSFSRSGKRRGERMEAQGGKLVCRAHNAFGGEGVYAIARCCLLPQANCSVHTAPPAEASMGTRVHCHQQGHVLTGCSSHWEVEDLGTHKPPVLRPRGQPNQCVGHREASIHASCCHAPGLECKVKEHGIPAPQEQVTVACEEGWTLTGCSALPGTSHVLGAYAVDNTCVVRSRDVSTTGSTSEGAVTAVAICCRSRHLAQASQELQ
T1 sequence (Q8NBP7 31-152 partner limits assumed): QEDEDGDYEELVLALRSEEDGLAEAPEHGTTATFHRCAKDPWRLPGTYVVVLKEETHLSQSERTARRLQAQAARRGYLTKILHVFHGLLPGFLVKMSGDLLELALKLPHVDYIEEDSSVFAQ
Description: All assays were conducted at an analysis temperature of 20° C. Samples were held at 10° C. in the sample rack to prevent denaturation of PCSK9 proteins. A biacore T100 from GE HealthCare and a SensiQ Pioneer FE were employed. All reagents were obtained from Sigma-Aldrich unless otherwise stated. The full set of peptides was analyzed using three closely related biosensor protocols that were expected to report equivalent affinity/kinetic parameters. The need for multiple protocols was related to the aggregation potential of some peptides. The buffer composition was largely conserved other than the addition of solubilizers such as dimethylsulfoxide (DMSO), 10 kDa polyvinylpyrrolidone (PVP) and 10 kDa carboxymethylated dextran (CM dextran).
A Series S NTA sensor chip was docked in the Biacore T100 biosensor system. The system was primed into running buffer (i.e. 50 mM HEPES, 0.15 M NaCl, 0.005% T20, pH 7.5). Hexahistidine-tagged proteins (“hexahistidine” disclosed as SEQ ID NO: 297) (i.e. PCSK9 or PCSK9Δhelix) were affinity captured onto separate sensing channels where at least one sensing surface remained uncoated in order to be applied as a referencing sensing surface. Compound samples were prepared in running buffer and injected. All affinity bound complexes were then removed before reloading each protein in order to test the next sample. Each sample cycle therefore consisted of five sequential injections that were repeated for each test sample as follows.
Injected sample using high quality injection mode. […] For these compounds the entire sample cycle consisting of five serial injections was repeated for each dilution. This sample cycle was a repeated sequence that is executed for each sample in the sample table.
This method was identical to method 1 except an alternative injection mode designated as single cycle kinetics (named by the manufacturer) was employed allowing a full dilution series to be completed during each sample cycle by replacing a single compound dilution injection with five sequential injections of increasing concentration. The resulting sensorgram (i.e. response curve) contained five binding-dissociation phases each associated with each injected compound dilution. The activation, capture and regeneration injections remained unchanged. […] Also CM dextran (Sigma-Aldrich product number 86524) was added to all buffers in the assay to a final concentration of 2 mg/mL in order to further lower non-specific binding to the surface. […] All recorded binding curves were automatically double referenced and fitted with a 1:1 model using BIAevaluation analysis software from GE HealthCare.
This instrument is analogous to Biacore AB biosensors in terms of surface chemistry, flow injection analysis and methodologies that can be employed except that it also provides a method to titrate compounds over the sensing surfaces.

[2] = molecular target: T1, PCSK9Δhelix; assay: PCSK9Δhelix/Ab20 TR-FRET binding assay; conditions: for IC50: TR-FRET, read-out: PCSK9Δhelix/Ab20 IC50
[3] = test system: His-EGF(A)-Fc; assay: His-EGF(A)-Fc TR-FRET counterscreen
[4] = molecular target: PCSK9 (Homo sapiens, UniProt Q8NBP7); assay: PCSK9/EGF(A) TR-FRET binding assay; conditions: for IC50: TR-FRET, read-out: PCSK9/EGF(A) IC50
Chain of PCSK9 (Q8NBP7 153-692): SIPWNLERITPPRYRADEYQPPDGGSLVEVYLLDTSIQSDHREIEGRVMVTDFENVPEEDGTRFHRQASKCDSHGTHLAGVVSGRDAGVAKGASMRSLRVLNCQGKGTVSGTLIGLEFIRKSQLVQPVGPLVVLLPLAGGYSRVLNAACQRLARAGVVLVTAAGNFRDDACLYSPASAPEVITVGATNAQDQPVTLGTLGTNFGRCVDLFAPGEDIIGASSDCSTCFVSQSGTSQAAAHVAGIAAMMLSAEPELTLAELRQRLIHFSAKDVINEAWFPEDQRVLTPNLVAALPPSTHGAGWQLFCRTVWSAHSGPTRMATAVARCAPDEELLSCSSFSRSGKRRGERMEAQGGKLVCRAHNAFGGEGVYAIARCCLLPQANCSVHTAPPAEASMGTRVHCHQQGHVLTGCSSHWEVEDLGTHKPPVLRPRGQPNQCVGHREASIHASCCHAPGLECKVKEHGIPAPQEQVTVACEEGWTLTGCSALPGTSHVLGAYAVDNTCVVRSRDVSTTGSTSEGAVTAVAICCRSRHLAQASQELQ
Chain of PCSK9 (Q8NBP7 31-152 partner limits assumed): as the sequence (Q8NBP7 31-152 partner limits assumed) above

[5] = Table 8D, disulfide-cyclized extension peptides
[6] = TR-FRET counterscreen, Table 8D, * = some inhibition at highest concentrations, not sufficient to fit an IC50
[7] = TR-FRET counterscreen, Table 8E, additional compounds

Compound | IC50 ([2]; Example 7) [µM] | IC50 ([3]; counterscreen, Example 7) [µM] | IC50 [4, 5] [µM] | IC50 [2, 5] [µM] | IC50 [3, 6] [µM] | IC50 ([4]; Example 7) [µM] | other results
H-SGDLMPWNLVRIGLLR-OH [Compound 28] |  |  |  |  |  |  | Kd [1]: 0.856 µM
CC[C@H](C)[C@@H]1NC(=O)[C@H](CCCNC(=N)N)NC(=O)[C@H](CCCCN)NC(=O)[C@H](CC(C)C)NC(=O)[C@H](CC(N)=O)NC(=O)[C@H](Cc2c[nH]c3ccccc23)NC(=O)[C@@H](NC(=O)CNC(=O)[C@H](CO)NC(=O)CNC(=O)[C@@H](NC(=O)[C@H](Cc2c[nH]c3ccccc23)NC(=O)[C@H](CC(=O)O)NC(=O)[C@H](CC(C)C)NC(=O)[C@H](Cc2ccc(O)cc2)NC(=O)[C@H](CCC(=O)O)NC(=O)[C@H](CCC(=O)O)NC(=O)[C@H](Cc2c[nH]c3ccccc23)NC(=O)[C@H](CO)NC(=O)[C@@H](NC(=O)[C@H](Cc2ccccc2)NC(=O)[C@@H](NC(=O)[C@@H](NC(C)=O)[C@@H](C)O)C(C)C)[C@@H](C)O)C(C)C)CSSC[C@@H](C(N)=O)NC(=O)CNC(=O)[C@H](CCC(N)=O)NC(=O)[C@H](CO)NC(=O)CNC1=O [Compound 2] (Ac-TVFTSWEEYLDWVGSGCWNLKRIGSQGC-NH2; disulfide 17-28) | 0.004 | > 50 |  |  |  |  | Kd [1]: 0.00187 µM
CC[C@H](C)[C@@H]1NC(=O)[C@H](CCCNC(=N)N)NC(=O)[C@H](CCC(N)=O)NC(=O)[C@H](CC(C)C)NC(=O)[C@H](CC(N)=O)NC(=O)[C@H](Cc2c[nH]c3ccccc23)NC(=O)[C@@H]2CCCN2C(=O)[C@H]([C@@H](C)CC)NC(=O)[C@H](Cc2ccccc2)NC(=O)[C@@H](NC(=O)CNC(=O)[C@H](CO)NC(=O)CNC(=O)[C@H](CO)NC(=O)c2ccc3c(c2)C(=O)OC32c3ccc(O)cc3Oc3cc(O)ccc32)CSSC[C@@H](C(N)=O)NC(=O)[C@H](CC(C)C)NC(=O)[C@H](CC(C)C)NC(=O)CNC1=O [Compound 33] (5FAM-SGSGCFIPWNLQRIGLLC-NH2; disulfide 5-18) |  |  |  |  |  |  | Kd [1]: 10 µM
CC[C@H](C)[C@@H]1NC(=O)[C@H](CCCNC(=N)N)NC(=O)[C@H](CCCCN)NC(=O)[C@H](CC(C)C)NC(=O)[C@H](CC(N)=O)NC(=O)[C@H](Cc2c[nH]c3ccccc23)NC(=O)[C@H](CC(C)C)NC(=O)[C@@H](NC(=O)[C@H](Cc2ccccc2)NC(C)=O)CSSC[C@@H](C(=O)N[C@@H](Cc2c[nH]c3ccccc23)C(=O)N[C@@H](Cc2ccccc2)C(N)=O)NC(=O)[C@H](CCC(N)=O)NC(=O)[C@H](C)NC(=O)CNC1=O [Compound 96] (Ac-FCLWNLKRIGAQCWF-NH2; disulfide 2-13 (inferred)) |  |  |  |  |  |  | Kd [1]: 2.5 µM
CC[C@H](C)[C@@H]1NC(=O)[C@H](CCCNC(=N)N)NC(=O)[C@H](CCC(N)=O)NC(=O)[C@H](CC(C)C)NC(=O)[C@H](CC(N)=O)NC(=O)[C@H](Cc2c[nH]c3ccccc23)NC(=O)[C@@H]2CCCN2C(=O)[C@H](CC(C)C)NC(=O)[C@H](CCCNC(=N)N)NC(=O)[C@@H](NC(C)=O)CSSC[C@@H](C(N)=O)NC(=O)CCCCCNC1=O [Compound 116] (Ac-CRLPWNLQRI[Ahx]C-NH2; disulfide 1-12) |  |  | > 50 | 31.6 | > 50 |  | inhibition in the PCSK9Δhelix/Ab20 binding assay [2]: weak but detectable inhibition
CC[C@H](C)[C@@H]1NC(=O)[C@H](CCCNC(=N)N)NC(=O)[C@H](CCC(N)=O)NC(=O)[C@H](C)NC(=O)[C@H](CC(N)=O)NC(=O)[C@H](Cc2c[nH]c3ccccc23)NC(=O)[C@@H]2CCCN2C(=O)[C@H](CC(C)C)NC(=O)[C@H](CCCNC(=N)N)NC(=O)[C@@H](NC(C)=O)CSSC[C@@H](C(N)=O)NC(=O)[C@@H]2CCCN2C(=O)[C@H](CC(C)C)NC(=O)CNC1=O [Compound 74] (Ac-CRLPWNAQRIGLPC-NH2; disulfide 1-14) |  |  | > 50 | 49.5 | > 50 |  | 
CC(=O)N[C@H]1CSSC[C@@H](C(N)=O)NC(=O)[C@@H]2CCCN2C(=O)[C@H](CC(C)C)NC(=O)CNC(=O)[C@H](C)NC(=O)[C@H](CCCNC(=N)N)NC(=O)[C@H](CCC(N)=O)NC(=O)[C@H](CC(C)C)NC(=O)[C@H](CC(N)=O)NC(=O)[C@H](Cc2c[nH]c3ccccc23)NC(=O)[C@@H]2CCCN2C(=O)[C@H](CC(C)C)NC(=O)[C@H](CCCNC(=N)N)NC1=O [Compound 71] (Ac-CRLPWNLQRAGLPC-NH2; disulfide 1-14) |  |  | > 50 | 49.5 | > 50 |  | 
Ac-DLMPWNLARIGLLR-NH2 [Compound 60] | 19.2 | > 50 |  |  |  | > 50 | 
CCCCC(=O)N[C@@H](Cc1c[nH]c2ccccc12)C(=O)N[C@@H](CC(N)=O)C(=O)N[C@@H](CC(C)C)C(=O)N[C@@H](CCCCN)C(=O)N[C@@H](CCCNC(=N)N)C(=O)N[C@H](C(=O)NCC(=O)N[C@@H](CC(C)C)C(=O)N[C@@H](CC(C)C)C(=O)N[C@@H](CCCNC(=N)N)C(N)=O)[C@@H](C)CC [Compound 159] (Pentanoyl-WNLKRIGLLR-NH2) |  |  |  |  |  |  | IC50 ([4]; Table 8E, additional compounds): ≥ 50 µM; IC50 ([2]; Table 8E, additional compounds): 6.6 µM; IC50 [3, 7]: ≥ 50 µM
Ac-DAMPWNLVRIGLLR-NH2 [Compound 44] | 6.9 | > 50 |  |  |  | > 50 | 
Ac-SGDLMPWNLVRIGLLR-NH2 [Compound 122] |  |  |  |  |  |  | IC50 ([4]; Table 8E, additional compounds): ≥ 50 µM; IC50 ([2]; Table 8E, additional compounds): 5.6 µM; IC50 [3, 7]: ≥ 50 µM
Ac-DLMPWNLVRAGLLR-NH2 [Compound 58] | > 49.5 | > 50 |  |  |  | > 50 | 
Ac-DLMPWNLVRI-NH2 [Compound 49] | ≥ 49.5 | > 50 |  |  |  | > 50 | 
CC[C@H](C)[C@@H]1NC(=O)[C@H](CCCNC(=N)N)NC(=O)[C@H](CCC(N)=O)NC(=O)[C@H](CC(C)C)NC(=O)[C@H](CC(N)=O)NC(=O)[C@H](C)NC(=O)[C@@H]2CCCN2C(=O)[C@H](CC(C)C)NC(=O)[C@H](CCCNC(=N)N)NC(=O)[C@@H](NC(C)=O)CSSC[C@@H](C(N)=O)NC(=O)[C@@H]2CCCN2C(=O)[C@H](CC(C)C)NC(=O)CNC1=O [Compound 76] (Ac-CRLPANLQRIGLPC-NH2; disulfide 1-14) |  |  | > 50 | 49.5 | > 50 |  | 
CC[C@H](C)[C@@H]1NC(=O)[C@H](CCCNC(=N)N)NC(=O)[C@H](CCCCN)NC(=O)[C@H](CC(C)C)NC(=O)[C@H](CC(N)=O)NC(=O)[C@H](Cc2c[nH]c3ccccc23)NC(=O)[C@@H](NC(=O)CNC(=O)CNC(=O)[C@H](CO)NC(=O)CNC(=O)[C@@H](NC(=O)[C@H](Cc2c[nH]c3ccccc23)NC(=O)[C@H](CC(=O)O)NC(=O)[C@H](CC(C)C)NC(=O)[C@H](Cc2ccc(O)cc2)NC(=O)[C@H](CCC(=O)O)NC(=O)[C@H](CCC(=O)O)NC(=O)[C@H](Cc2c[nH]c3ccccc23)NC(=O)[C@H](CO)NC(=O)[C@@H](NC(=O)[C@H](Cc2ccccc2)NC(=O)[C@@H](NC(=O)[C@@H](NC(C)=O)[C@@H](C)O)C(C)C)[C@@H](C)O)C(C)C)CSSC[C@@H](C(N)=O)NC(=O)CNC(=O)[C@H](CCC(N)=O)NC(=O)[C@H](CO)NC(=O)CNC1=O [Compound 14] (Ac-TVFTSWEEYLDWVGSGGCWNLKRIGSQGC-NH2; disulfide 18-29) | 0.001 | > 50 |  |  |  | 0.009 | inhibition in the PCSK9/EGF(A) binding assay [4]: potent inhibitors; inhibition in the PCSK9Δhelix/Ab20 binding assay [2]: potent inhibitors
CC[C@@H](C)[C@H]1NC(=O)[C@H](CCCNC(=N)N)NC(=O)[C@H](CCC(N)=O)NC(=O)[C@H](CC(C)C)NC(=O)[C@H](CC(N)=O)NC(=O)[C@H](Cc2c[nH]c3ccccc23)NC(=O)[C@@H]2CCCN2C(=O)[C@H](CC(C)C)NC(=O)[C@H](CCCNC(=N)N)NC(=O)[C@@H](NC(C)=O)CSSC[C@@H](C(N)=O)NC(=O)[C@@H]2CCCN2C(=O)[C@H](CC(C)C)NC(=O)CNC1=O [Compound 101] (Ac-CRLPWNLQR[dI]GLPC-NH2; disulfide 1-14) |  |  | > 50 | > 50 | > 50 |  | 
Ac-DLMPWNAVRIGLLR-NH2 [Compound 61] | > 49.5 | > 50 |  |  |  | > 50 | 
CC[C@H](C)[C@@H]1NC(=O)[C@H](CCCNC(=N)N)NC(=O)[C@H](CCC(N)=O)NC(=O)[C@H](CC(C)C)NC(=O)[C@H](CC(N)=O)NC(=O)[C@H](Cc2c[nH]c3ccccc23)NC(=O)[C@H](C)NC(=O)[C@H](CC(C)C)NC(=O)[C@H](CCCNC(=N)N)NC(=O)[C@@H](NC(C)=O)CSSC[C@@H](C(N)=O)NC(=O)[C@@H]2CCCN2C(=O)[C@H](CC(C)C)NC(=O)CNC1=O [Compound 77] (Ac-CRLAWNLQRIGLPC-NH2; disulfide 1-14) |  |  | > 50 | 6.02 | > 50 |  | 
CC[C@H](C)[C@@H]1NC(=O)[C@H](CCCNC(=N)N)NC(=O)[C@H](CCCCN)NC(=O)[C@H](CC(C)C)NC(=O)[C@H](CC(N)=O)NC(=O)[C@H](Cc2c[nH]c3ccccc23)NC(=O)[C@H](CC(C)C)NC(=O)[C@@H](NC(=O)[C@H](Cc2c[nH]c3ccccc23)NC(C)=O)CSSC[C@@H](C(=O)N[C@@H](CCC(=O)O)C(=O)N[C@@H](Cc2ccc(O)cc2)C(N)=O)NC(=O)[C@H](CCC(N)=O)NC(=O)[C@H](CO)NC(=O)CNC1=O [Compound 65] (Ac-WCLWNLKRIGSQCEY-NH2; disulfide 2-13) |  |  | > 50 | 7.1 | > 50 |  | 
Ac-DLMPWNLVRIGL-NH2 [Compound 47] | 12.6 | > 50 |  |  |  | > 50 | 
Ac-DLMPWNLVRIGLPR-NH2 [Compound 160] |  |  |  |  |  |  | IC50 ([4]; Table 8E, additional compounds): ≥ 50 µM; IC50 ([2]; Table 8E, additional compounds): 19 µM; IC50 [3, 7]: ≥ 50 µM
